PubChem BioAssay (NCI)
Where “and” joins values, the source holds several entries; their conditions need not be identical. Identical values can stand only once.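 Exposure lasted 48 hours, with cells grown in 96-well plates and compounds tested at five concentrations. The concentration for 50% growth inhibition is given as GI50. TGI denotes the concentration required for complete inhibition of growth.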

What was measured:
Test in all cases: NCI-60 cell line screen, 48 h
A498 renal = test system: A498 renal
SK-MEL-5 melanoma = test system: SK-MEL-5 melanoma
HCT-15 colon = test system: HCT-15 colon
HOP-92 NSCLC = test system: HOP-92 NSCLC
COLO 205 colon = test system: COLO 205 colon
HCC-2998 colon = test system: HCC-2998 colon
MOLT-4 leukemia = test system: MOLT-4 leukemia
KM12 colon = test system: KM12 colon
OVCAR-5 ovarian = test system: OVCAR-5 ovarian
T-47D breast = test system: T-47D breast
MDA-MB-231 breast = test system: MDA-MB-231 breast
MDA-N = test system: MDA-N
SR leukemia = test system: SR leukemia
A549 NSCLC = test system: A549 NSCLC
786-0 renal = test system: 786-0 renal
OVCAR-8 ovarian = test system: OVCAR-8 ovarian
HOP-62 NSCLC = test system: HOP-62 NSCLC
NCI-H460 lung = test system: NCI-H460 lung
MDA-MB-435 = test system: MDA-MB-435
U251 CNS = test system: U251 CNS
SF-295 CNS = test system: SF-295 CNS
LOX IMVI melanoma = test system: LOX IMVI melanoma
SN12C renal = test system: SN12C renal
CCRF-CEM leukemia = test system: CCRF-CEM leukemia
MALME-3M melanoma = test system: MALME-3M melanoma
MCF7 breast = test system: MCF7 breast
HL-60(TB) leukemia = test system: HL-60(TB) leukemia
CAKI-1 renal = test system: CAKI-1 renal
UO-31 renal = test system: UO-31 renal
RPMI-8226 leukemia = test system: RPMI-8226 leukemia
M14 melanoma = test system: M14 melanoma
SK-OV-3 ovarian = test system: SK-OV-3 ovarian
NCI/ADR-RES ovarian = test system: NCI/ADR-RES ovarian
SNB-75 CNS = test system: SNB-75 CNS
UACC-257 melanoma = test system: UACC-257 melanoma
OVCAR-3 ovarian = test system: OVCAR-3 ovarian
DU-145 prostate = test system: DU-145 prostate
K-562 leukemia = test system: K-562 leukemia
RXF 393 renal = test system: RXF 393 renal
EKVX NSCLC = test system: EKVX NSCLC
NCI-H23 lung = test system: NCI-H23 lung
BT-549 breast = test system: BT-549 breast
HCT-116 colon = test system: HCT-116 colon
SK-MEL-2 melanoma = test system: SK-MEL-2 melanoma
SW-620 colon = test system: SW-620 colon
UACC-62 melanoma = test system: UACC-62 melanoma
NCI-H226 lung = test system: NCI-H226 lung
IGROV1 ovarian = test system: IGROV1 ovarian
SNB-19 CNS = test system: SNB-19 CNS
HS 578T breast = test system: HS 578T breast
ACHN renal = test system: ACHN renal
SF-268 CNS = test system: SF-268 CNS
TK-10 renal = test system: TK-10 renal
OVCAR-4 ovarian = test system: OVCAR-4 ovarian
SF-539 CNS = test system: SF-539 CNS
SK-MEL-28 melanoma = test system: SK-MEL-28 melanoma
NCI-H522 lung = test system: NCI-H522 lung
PC-3 prostate = test system: PC-3 prostate
HT29 colon = test system: HT29 colon

Compound: O=[N+]([O-])c1ccc2ncccc2c1CCc1c([N+](=O)[O-])ccc2ncccc12
- TGI (A498 renal): > 100 µM
- TGI (SK-MEL-5 melanoma): > 100 µM
- TGI (HCT-15 colon): > 100 µM
- TGI (HOP-92 NSCLC): > 100 µM
- TGI (COLO 205 colon): > 100 µM
- TGI (HCC-2998 colon): > 100 µM
- TGI (MOLT-4 leukemia): > 100 µM
- TGI (KM12 colon): > 100 µM
- TGI (OVCAR-5 ovarian): > 100 µM
- TGI (T-47D breast): > 100 µM
- TGI (MDA-MB-231 breast): > 100 µM
- TGI (MDA-N): > 100 µM
- TGI (SR leukemia): > 100 µM
- TGI (A549 NSCLC): > 100 µM
- TGI (786-0 renal): > 100 µM
- TGI (OVCAR-8 ovarian): > 100 µM
- TGI (HOP-62 NSCLC): > 100 µM
- TGI (NCI-H460 lung): > 100 µM
- TGI (MDA-MB-435): > 100 µM
- TGI (U251 CNS): > 100 µM
- TGI (SF-295 CNS): > 100 µM
- TGI (LOX IMVI melanoma): > 100 µM
- TGI (SN12C renal): > 100 µM
- TGI (CCRF-CEM leukemia): > 100 µM
- TGI (MALME-3M melanoma): > 100 µM
- TGI (MCF7 breast): > 100 µM
- TGI (HL-60(TB) leukemia): > 100 µM
- TGI (CAKI-1 renal): > 100 µM
- TGI (UO-31 renal): > 100 µM
- TGI (RPMI-8226 leukemia): > 100 µM
- TGI (M14 melanoma): > 100 µM
- TGI (SK-OV-3 ovarian): > 100 µM
- TGI (NCI/ADR-RES ovarian): > 100 µM
- TGI (SNB-75 CNS): > 100 µM
- TGI (UACC-257 melanoma): > 100 µM
- TGI (OVCAR-3 ovarian): > 100 µM
- TGI (DU-145 prostate): > 100 µM
- TGI (K-562 leukemia): > 100 µM
- TGI (RXF 393 renal): > 100 µM
- TGI (EKVX NSCLC): > 100 µM
- TGI (NCI-H23 lung): > 100 µM
- TGI (BT-549 breast): > 100 µM
- TGI (HCT-116 colon): > 100 µM
- TGI (SK-MEL-2 melanoma): > 100 µM
- TGI (SW-620 colon): > 100 µM
- TGI (UACC-62 melanoma): > 100 µM
- TGI (NCI-H226 lung): > 100 µM
- TGI (IGROV1 ovarian): > 100 µM
- TGI (SNB-19 CNS): > 100 µM
- TGI (HS 578T breast): > 100 µM
- TGI (ACHN renal): > 100 µM
- TGI (SF-268 CNS): > 100 µM
- TGI (TK-10 renal): > 100 µM
- TGI (OVCAR-4 ovarian): > 100 µM
- TGI (SF-539 CNS): > 100 µM
- TGI (SK-MEL-28 melanoma): > 100 µM
- TGI (NCI-H522 lung): > 100 µM
- TGI (PC-3 prostate): > 100 µM
- TGI (HT29 colon): > 100 µM

Compound: N=C(N)SCCc1ccccn1
- GI50 (A498 renal): 37.8 µM and > 100 µM
- TGI (A498 renal): > 100 µM
- TGI (SK-MEL-5 melanoma): > 100 µM
- TGI (HCT-15 colon): > 100 µM
- TGI (HOP-92 NSCLC): > 100 µM
- TGI (COLO 205 colon): > 100 µM
- TGI (HCC-2998 colon): > 100 µM
- TGI (MOLT-4 leukemia): > 100 µM
- TGI (KM12 colon): > 100 µM
- TGI (OVCAR-5 ovarian): > 100 µM
- TGI (T-47D breast): > 100 µM
- TGI (MDA-MB-231 breast): > 100 µM
- TGI (MDA-N): > 100 µM
- TGI (SR leukemia): > 100 µM
- TGI (A549 NSCLC): > 100 µM
- TGI (786-0 renal): > 100 µM
- TGI (OVCAR-8 ovarian): > 100 µM
- TGI (HOP-62 NSCLC): > 100 µM
- TGI (NCI-H460 lung): > 100 µM
- TGI (MDA-MB-435): > 100 µM
- TGI (U251 CNS): > 100 µM
- TGI (SF-295 CNS): > 100 µM
- TGI (LOX IMVI melanoma): > 100 µM
- TGI (SN12C renal): > 100 µM
- TGI (CCRF-CEM leukemia): > 100 µM
- TGI (MALME-3M melanoma): > 100 µM
- TGI (MCF7 breast): > 100 µM
- TGI (HL-60(TB) leukemia): > 100 µM
- TGI (CAKI-1 renal): > 100 µM
- TGI (UO-31 renal): > 100 µM
- TGI (RPMI-8226 leukemia): > 100 µM
- TGI (M14 melanoma): > 100 µM
- TGI (SK-OV-3 ovarian): > 100 µM
- TGI (NCI/ADR-RES ovarian): > 100 µM
- GI50 (SNB-75 CNS): 39.7 µM and > 100 µM
- TGI (SNB-75 CNS): > 100 µM
- TGI (UACC-257 melanoma): > 100 µM
- TGI (OVCAR-3 ovarian): > 100 µM
- TGI (DU-145 prostate): > 100 µM
- TGI (K-562 leukemia): > 100 µM
- TGI (RXF 393 renal): > 100 µM
- TGI (EKVX NSCLC): > 100 µM
- GI50 (NCI-H23 lung): 35.5 µM and > 100 µM
- TGI (NCI-H23 lung): > 100 µM
- TGI (BT-549 breast): > 100 µM
- TGI (HCT-116 colon): > 100 µM
- TGI (SK-MEL-2 melanoma): > 100 µM
- TGI (SW-620 colon): > 100 µM
- TGI (UACC-62 melanoma): > 100 µM
- TGI (NCI-H226 lung): > 100 µM
- TGI (IGROV1 ovarian): > 100 µM
- TGI (SNB-19 CNS): > 100 µM
- TGI (HS 578T breast): > 100 µM
- TGI (ACHN renal): > 100 µM
- TGI (SF-268 CNS): > 100 µM
- TGI (TK-10 renal): > 100 µM
- TGI (OVCAR-4 ovarian): > 100 µM
- TGI (SF-539 CNS): > 100 µM
- TGI (SK-MEL-28 melanoma): > 100 µM
- TGI (NCI-H522 lung): > 100 µM
- TGI (PC-3 prostate): > 100 µM
- TGI (HT29 colon): > 100 µM
